Measurements as given in publication PMC8214221, “Sequence determinants in the cathelicidin LL-37 that promote inflammation via presentation of RNA to scavenger receptors” (The Journal of Biological Chemistry, 2021).
Residues, ends and D or L forms follow the SMILES beside them.

How the values were obtained:
[1] = tested on: normal human epidermal keratinocytes (NHEKs); assay: LDH release cytotoxicity assay in keratinocytes; assay type: cell-based; details: minimal concentration giving 50% LDH release by NHEKs
Outline: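 Normal human epidermal keratinocytes were exposed to LL-34 parent and alanine-substituted peptides. Cytotoxicity was read as LDH release in fresh culture supernatants after treatment, using a commercial kit, and reported as the minimal concentration showing toxicity.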

[2] = tested on: NHEKs, IL-6 secretion in response to U1 dsRNA; assay: IL-6 secretion ELISA in NHEKs; assay type: cell-based, human; details: U1 dsRNA 2.5 μg/ml + peptide 2 μM, 18 h, n = 3
Outline: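 NHEKs (also HDMECs) exposed to LL-34 parent or alanine-scan peptides at 2 μM, alone or with U1 dsRNA (2.5 μg/ml), for 18 h. Secreted IL-6 in supernatant quantified by sandwich ELISA (n = 3).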

[3] = tested on: NHEKs, IL6, IFNB1, TSLP, CXCL10 mRNA; assay: qRT-PCR gene expression in NHEKs; assay type: cell-based, human; details: 18 h / 8 h (Fig. 1 legend), n = 3
Description: Protein levels of human IL-6 were analyzed from cell supernatant with ELISA (n = 3). Corresponding MIC values of LL-34 peptides L1A–R34A against Staphylococcus aureus USA300 are shown in the heat map. B, human dermal endothelial cells (HDMECs) were treated with either U1 dsRNA (2.5 μg/ml) or a combination of U1 dsRNA (2.5 μg/ml) and LL-34 peptides (Pep 1–Pep 34 and Pep–parent LL-34) at 2 μM for 18 h. IL-6 ELISA results are shown (n = 3). Green bars denote loss of IL-6 protein secretion compared with parent control shown in red. C, helical wheel plot for LL-34. Amino acids with green circles denote specific residues where replacement with an alanine caused the loss of IL-6 secretion compared with parent LL-34 peptide in NHEKs cotreated with U1 dsRNA. D, in the helical wheel plot for LL-34, circled green amino acids indicate that a substitution caused a loss of vetting in HDMEC. E–H, NHEKs were treated with LL-34-parent peptide (LL-34-P), LL-34-F5A, LL-34-I24A, LL-34-F27A, and LL-34-L31A at 2 μM, either individually or in combination with U1 dsRNA (2.5 μg/ml) for 8 h. Gene expression of IL-6, IFNB1, TSLP, and CXCL10 was assessed with qRT-PCR. GAPDH was used as a reference gene (n = 3) (∗p < 0.05; ∗∗∗∗p < 0.0001). One way-ANOVA was used. IL-6, interleukin 6; LL-34, 34-amino acid peptide; MIC, minimum inhibitory concentration, ns, not significant.
(§1) We further looked at mRNA abundance by quantitative RT-PCR (qRT-PCR) to evaluate gene expression for type 1 interferon IFNB1, chemokine CXCL10, and cytokines TSLP and IL6 in NHEKs treated with selected LL-34 parent, LL-34—F5A, I24A, F27A, and L31A—peptides either alone or in combination with U1 dsRNA for 18 h (Fig. 1, E–H).
RNA extracted from cells (Pure Link RNA Isolation Kit; Life Technologies) was quantified on the Nanodrop 2000/200C Spectrophotometer (Thermo Fisher Scientific). About 500 ng of purified RNA was used to synthesize complementary DNA with iScript cDNA Synthesis Kit (Bio-Rad). Predeveloped Taqman (Thermo Fisher Scientific) gene expression assays were used to evaluate mRNA transcript levels. Taqman cycling conditions were used as previously described ([9], [45]). All experiments were performed on a CFX96 system (Bio-Rad). Fold change relative to GAPDH was calculated using the Livak ΔΔCt method ([46]).

[4] = tested on: S. aureus strain USA300 and SA112, GAS; assay: Bacterial growth inhibition (OD600), Gram-positive strains; assay type: cell-based, Staphylococcus aureus; group A Streptococcus; details: 0-50 µM overnight, OD 600, n = 3, S. aureus USA300, SA113 (SA112 in text)
Description: as §1
(§2) Methicillin-resistant S. aureus USA300 and methicillin-sensitive S. aureus SA113 (American Type Culture Collection 35556) were cultured in 3% tryptic soy broth overnight at 37 °C with shaking at 250 rpm. GAS M49 strain NZ131 was cultured in Todd Hewitt broth supplemented with 1% yeast extract overnight at 37 °C without shaking. E. coli R1 strain RS218 was cultured in LB broth overnight at 37 °C with shaking at 250 rpm. MIC values were determined using a round-bottom 96-well microdilution method with RPMI cell culture media (as a source of Ca^2+ and Mg^2+) supplemented with tryptic soy broth, Todd Hewitt broth/yeast extract, or LB to facilitate growth of the respective bacterial strains. Overnight bacterial cultures were subcultured into fresh broth and grown to midlate log phase indicated by an absorbance at 600 nm value between 0.8 and 1.0 for each bacterial strain. The absorbance was then normalized to provide a concentration of 1 × 10^7 colony-forming units/ml in RPMI medium. The LL-34 parent and alanine scan mutants were serially diluted into the 96-well microtiter plates containing prewarmed RPMI bacterial growth medium. A 10 μl aliquot of the midlate log phase bacteria was inoculated into the 96-well microtiter plates that contained 95 μl of RPMI medium with or without the LL-34 peptide dilutions and incubated for 16 to 18 h at […] with shaking at 200 rpm. Inhibition of growth was determined by measuring the absorbance at 600 nm readings of each well using a microplate reader (Infinite M200 Pro; Tecan). The MIC of each bacterial strain was determined by the lowest peptide concentration that inhibited more than 80% bacterial growth.
(§3) (A) NHEKs and HDMECs (B) were treated with LL34- parent peptide and all the 34 alanine substituted peptides (Pep L1A-Pep R34A) and LL37 at 2 µM for 16 h. IL-6 protein secretion was assessed with ELISA (n=3) (C-F) LL34-Parent, LL34 F5A, LL34 I24A, LL34 F27A, and LL34 L31A peptides were incubated with S. aureus USA 300, S. aureus SA113, Group A Streptococcus (GAS) and E. coli at increasing concentrations (0-50 µM) overnight, and bacterial culture growth was assayed as absorbance at OD 600 (n=3).

[5] = tested on: Escherichia coli; assay: Bacterial growth inhibition (OD600), E. coli; assay type: cell-based; details: 0-50 µM overnight, OD 600, n = 3
Description: as §1, §2, §3

[6] = tested on: U1 dsRNA binding on the surface of NHEKs; assay: Surface binding of Alexa 488-labeled U1 dsRNA to NHEKs; assay type: cell-based, human; details: Alexa 488 U1 0.05-10 μg/ml + peptide 2.5 μM, 10 min on ice; fluorometer RFU, n = 3
Description: We also assayed the dynamics of binding of U1 dsRNA on the surface of NHEKs in the presence of LL-34 mutant peptides. NHEKs were exposed to fluorescent Alexa 488–labeled U1 at increasing concentrations (0.05–10 μg/ml) and LL-34 parent peptide, LL-34 I24A, LL-34 L31A, LL-34 K25A, and LL-34 proline at isoleucine position 20 (I20P) for 10 min on ice to allow for surface binding of U1 to cells in the presence of peptides (Fig. 5A).
Figure 5 Biophysical properties of binding of U1 dsRNA to LL-34 peptides and SRB1 protein.A, NHEKs were treated with Alexa 488–labeled U1 dsRNA or a combination of Alexa 488–labeled U1 dsRNA (0.05–10 μg/ml) and LL-34 peptides LL-34 parent, LL-34 I24A, LL-34 K25A, LL-34 L31A, and LL-34 I20P at 2.5 μM as shown. The cells were prechilled on ice for 15 min before the addition of U1 dsRNA and/or LL-34 peptides, and the surface binding of U1 dsRNA was allowed for 10 min. The amount of U1 dsRNA binding to NHEKs was assessed with a fluorometer, and data are represented as relative fluorescence units (RFUs) (n = 3). B, NHEKs were similarly treated with Alexa-labeled U1 dsRNA (1.5 μg/ml) and/or unlabeled U1 dsRNA (15 μg/ml) with the addition of LL-34 parent peptide at 2.5 μM. The experiment was performed on ice for 10 min, and the relative binding of Alexa 488 U1 dsRNA was assessed on a fluorometer and is shown as RFU (n = 3) (∗p < 0.05) one-way ANOVA. C, SAXS spectra of LL-34 peptides LL-34 parent, LL-34 F5A, LL-34 I24A, and LL-34 L31A incubated with U1 dsRNA. The peptide-U1 dsRNA (P/R) ratio is varied at 1 and 2 for all conditions. The U1 dsRNA interhelical spacing (Q) was calculated by the peak position. The domain size (L) was calculated by the full width at half maximum of the first peak. LL-34, 34-amino acid peptide; NHEKs, normal human epidermal keratinocytes; SAXS, small-angle X-ray scattering.

| SMILES | Minimal cytotoxic concentration in NHEK (LD50) [1] | IL-6 protein secretion, cotreatment with U1 dsRNA, vs U1 dsRNA + LL-34 parent [2] | Gene expression of IL6, IFNB1, and CXCL10, cotreatment with U1 dsRNA ([3]; U1 dsRNA 2.5 μg/ml + peptide 2 μM) | Gene expression of TSLP, peptide alone ([3]; peptide 2 μM alone, GAPDH reference) | Basal expression of IL6, IFNB1, and CXCL10, peptide alone ([3]; peptide 2 μM alone) | Capacity to inhibit growth of Gram-positive bacteria [4] | Action against Gram-negative E. coli [5] | Binding of Alexa 488-labeled U1 dsRNA on the NHEK cell surface [6] |
| --- | --- | --- | --- | --- | --- | --- | --- | --- |
| CC[C@H](C)[C@H](NC(=O)[C@H](CCCCN)NC(=O)[C@H](CCC(=O)O)NC(=O)[C@H](CCCCN)NC(=O)[C@H](CO)NC(=O)[C@H](CCCCN)NC(=O)[C@H](CCCNC(=N)N)NC(=O)[C@H](Cc1ccccc1)NC(=O)[C@H](Cc1ccccc1)NC(=O)[C@H](CC(=O)O)NC(=O)CNC(=O)[C@H](CC(C)C)NC(=O)[C@@H](N)CC(C)C)C(=O)NCC(=O)N[C@@H](CCCCN)C(=O)N[C@@H](CCC(=O)O)C(=O)N[C@@H](Cc1ccccc1)C(=O)N[C@@H](CCCCN)C(=O)N[C@@H](CCCNC(=N)N)C(=O)N[C@H](C(=O)N[C@H](C(=O)N[C@@H](CCC(N)=O)C(=O)N[C@@H](CCCNC(=N)N)C(=O)N[C@H](C(=O)N[C@@H](CCCCN)C(=O)N[C@@H](CC(=O)O)C(=O)N[C@@H](C)C(=O)N[C@@H](CC(C)C)C(=O)N[C@@H](CCCNC(=N)N)C(=O)N[C@@H](CC(N)=O)C(=O)N[C@@H](CC(C)C)C(=O)N[C@H](C(=O)N1CCC[C@H]1C(=O)N[C@@H](CCCNC(=N)N)C(=O)O)C(C)C)[C@@H](C)CC)C(C)C)[C@@H](C)CC [LL-34—F27A] (H-LLGDFFRKSKEKIGKEFKRIVQRIKDALRNLVPR-OH) | 10 µM | reduced secretion of IL-6 protein | reduction in gene expression | increased gene expression of TSLP | not affected | increased capacity to inhibit growth of most of the tested Gram-positive bacteria | little action |  |
| CC[C@H](C)[C@H](NC(=O)[C@H](CCCCN)NC(=O)[C@H](CCC(=O)O)NC(=O)[C@H](CCCCN)NC(=O)[C@H](CO)NC(=O)[C@H](CCCCN)NC(=O)[C@H](CCCNC(=N)N)NC(=O)[C@H](Cc1ccccc1)NC(=O)[C@H](Cc1ccccc1)NC(=O)[C@H](CC(=O)O)NC(=O)CNC(=O)[C@H](CC(C)C)NC(=O)[C@@H](N)CC(C)C)C(=O)NCC(=O)N[C@@H](CCCCN)C(=O)N[C@@H](CCC(=O)O)C(=O)N[C@@H](Cc1ccccc1)C(=O)N[C@@H](CCCCN)C(=O)N[C@@H](CCCNC(=N)N)C(=O)N[C@H](C(=O)N[C@H](C(=O)N[C@@H](CCC(N)=O)C(=O)N[C@@H](CCCNC(=N)N)C(=O)N[C@H](C(=O)N[C@@H](C)C(=O)N[C@@H](CC(=O)O)C(=O)N[C@@H](Cc1ccccc1)C(=O)N[C@@H](CC(C)C)C(=O)N[C@@H](CCCNC(=N)N)C(=O)N[C@@H](CC(N)=O)C(=O)N[C@@H](CC(C)C)C(=O)N[C@H](C(=O)N1CCC[C@H]1C(=O)N[C@@H](CCCNC(=N)N)C(=O)O)C(C)C)[C@@H](C)CC)C(C)C)[C@@H](C)CC [LL-34—K25A] (H-LLGDFFRKSKEKIGKEFKRIVQRIADFLRNLVPR-OH) | 10 µM |  |  |  |  |  |  | enhanced binding of U1 on the cell surface |
